Source: patent US20020197700A1, “Receptor of the EDb-fibronectin domains” (Schering AG, priority 2000, published 2002)
“Also recorded” adds a separate entry of the source. Values belong to the substance of their own block, whether it stands above or below them.

How the values were obtained:
stromal cells (SC) = assay: proliferation assay (MTS) of stromal cells; type: cell-based, human; details: SC/gelatin; bFGF+ED-B; 3 days
Procedure: (§1) 1000 cells per bowl were incubated in 96-bowl plates. Soluble ED-B (10 μg/l) was added to the medium during the proliferation assay. After three days, the cell count was determined with the MTS assay. The proliferation of cells was induced by a basic […] growth factor (bFGF). […] In the case of human stromal cells on gelatin (SC/gelatin), even in the absence of bFGF proliferation occurred that considerably exceeded that of human endothelial cells.
(§2) For the proliferation assay, the following experimental method was followed:
(§3) Material: 96-bowl plate (flat-bottomed), Nunc
(§4) Medium: MCDB 131, Pen/Strep, amphotericin (0.25 μg/ml), heparin (20 μg/ml), heat-inactivated FCS (5%)
Cells, 500-1000 per bowl (96-bowl plate) in 100 μl, are cultivated for 3 days in a medium with bFGF (1-3 ng/ml) or VEGF (30-50 ng/ml). The exact amount should be determined for each batch by titration: the minimum concentration that reaches the maximum proliferation stimulation is optimal. A synchronization of the cells before the experiment is not necessary, but can be done. After 3 days, the cell count is determined with the MTS kit (Promega) according to manufacturer's information. It is recommended to measure the absorption at several points to obtain a maximum absorption in the linear range (0.5; 1; 2; 4 hours). […]

endothelial cells [1] = assay: adhesion test of endothelial cells to coated microtiter-bowl plates; type: cell-based; details: plates coated with 0-40 μg/ml ED-B; 1 hour; crystal violet, A595
Procedure: As a negative control, bowls were used that were coated with 1 mg/ml of BSA (bovine serum albumin); the adhesion to BSA (<10%) was subtracted.
The adherence was quantified by staining with crystal violet, followed by a lysis with SDS. The quantification was carried out by measuring the extinction at 595 nm. A line drawn horizontally in the figure at A595 nm≈1.06 indicates the 100% adhesion to plasma-fibronectin.
For the adherence/adhesion test, the following experimental method was used:
Medium: MCDB 131, Pen/Strep, amphotericin (0.25 μg/ml), heparin (20 μg/ml), 0.1% BSA (Sigma, ethanol-precipitated)
0.1% crystal violet, 2% glutaric aldehyde in PBS, sterilized by filtration 2% SDS
Bowls of a 96-bowl plate (Nunc) are covered with protein for one hour at 37° C. With small proteins (<20 kDa) or peptides, it is recommended to allow the latter to dry on the plate (overnight without a cover under the sterile bank). The bowls are then saturated with 1% BSA for 1 hour at 37° C. Cells are dissolved in 1×trypsin, washed with 2% serum to inactivate the trypsin, and resuspended in medium. If antibodies or peptides are to be tested, the cells are pre-incubated in suspension with the latter for 30 minutes at 37° C. 10^4 cells per bowl (96-bowl plate) are incubated in a volume of 50-100 μl for 1 hour at 37° C. […] The absorption at 595 nm is measured. […]

endothelial cells (EC) = assay: proliferation assay (MTS) of endothelial cells; type: cell-based; details: soluble ED-B 10 μg/l, 3 days; for action on human endothelial cell proliferation: bFGF-induced
Procedure: as §1, §2, §3, §4
Cells, 500-1000 per bowl (96-bowl plate) in 100 μl, are cultivated for 3 days in a medium with bFGF (1-3 ng/ml) or VEGF (30-50 ng/ml). The exact amount should be determined for each batch by titration: the minimum concentration that reaches the maximum proliferation stimulation is optimal. A synchronization of the cells before the experiment is not necessary, but can be done. After 3 days, the cell count is determined with the MTS kit (Promega) according to manufacturer's information. It is recommended to measure the absorption at several points to obtain a maximum absorption in the linear range (0.5; 1; 2; 4 hours).
Negative control, no mitogen (no proliferation) (−bFGF/VEGF) Positive control, with mitogen (maximum stimulation) (+bFGF/VEGF)

[2] = test system: HUVEC (Human Umbilical Vein Endothelial Cells)-spheroids; assay: splintering test (tube formation test) of endothelial cell spheroids in collagen; type: cell-based; details: for induction of capillary-like structures (tube formation); penetration of endothelial cells in collagen gels: over basal bFGF-induced penetration
Procedure: For the splintering test (tube formation test), the following experimental method was used:
Medium: MCDB 131, glutamine, Pen/Strep, amphotericin (0.25 μg/ml), heparin (20 μg/ml), heat-inactivated FCS (10%)
Growth medium: Medium with 2 ng/ml of bFGF and 10 ng/ml of VEGF
Endothelial cells are dissolved with trypsin/EDTA and diluted with 5000 cells/ml in medium with 0.24% methyl cellulose. 200 μl (1000 cells) each are added to bowls of a Greiner plate and incubated overnight. Round cell clusters (spheroids) are harvested with a 1 ml pipette with beveled tips and centrifuged off. Spheroids are resuspended in 1.2% methyl cellulose/FCS and mixed with neutralized collagen gel. EDb and bFGF were co-polymerized.
This peptide thus has a stimulating effect on the penetration of endothelial cells in collagen gels. This peptide therefore corresponds to the binding region of EDb and stimulates, analogously to EDb itself, the penetration of endothelial cells in the collagen.
The method described for FIG. 3 was followed.

[3] = target: T1, biontinylated protein with an apparent molecular weight of 120-130 kDa (receptor of the EDb-fibronectin domains) (Homo sapiens, UniProt P05556); assay: affinity chromatography of cell lysate from surface-labeled human skin endothelial cells; type: binding; details: proliferating endothelial cells; EDTA elution; SDS-PAGE, Western Blot
T1 construct: proliferating endothelial cells that are biotinylated on the cell surface were lysed with a detergent; endogenous in cells; host or cells: proliferating human skin endothelial cells, surface-biotinylated, lysed in CHAPS
Procedure: In this respect, proliferating endothelial cells that are biotinylated on the cell surface were lysed with a detergent and subjected to an affinity chromatography, in which short fragments of fibronectin were coupled to sepharose with or without the inserted EDb-fibronectin domains (with the EDb-fibronectin domains=Fn-7-B-8-9, without the EDb-fibronectin domains=Fn-7-8-9). […] The elution is carried out by means of EDTA. Several fractions, described below, were collected. The fractions were then subjected to SDS-PAGE and studied with Western Blot with streptavidin-peroxidase and chemiluminescence (ECL). Traces 1 and 5 show pre-elution fractions, while traces 2, 3, 4 or 6, 7, 8 show the eluted fractions 1, 2 and 3. Traces 1-4 show the chromatography with Fn-7-8-9, while traces 5-8 show the chromatography with Fn-7-B-8-9.
Method: The cell culture bottles are washed respectively 3 times with PBS w/Ca+Mg before and after the biotinylation. Before the last washing process, the biotin buffer (1 mg/15 ml of PBS) is prepared. Into each of the bottles, 5 ml of the buffer (for 225 cm^2) or 12.5 ml (500 cm^2 plates) is pipetted into the center of the bottom, so that the volume can disperse over the entire bottom of the bottle while swinging around. The first culture bottle is then treated with half of the lysis buffer volume. […]

[4] = test system: band with an apparent molecular weight of 120-130 kDa (receptor of the EDb-fibronectin domains); assay: affinity chromatography of cell lysate from surface-labeled human skin stromal cells; type: binding; details: Western Blot
Procedure: Method: The lysate is first put on the column three times.
EDTA-Elution: EDTA complexes the Ca and Mg ions. As a result, the endothelial-cell proteins are eluted, which require Ca and Mg for binding. 2×4 ml of EDTA-buffer is put on the column (or on both columns) and collected in two fractions (E1 and E2/BE1 and BE2) in Falcon tubes. Then, the tube contents are mixed, and […] is pipetted off into one (or two) Eppendorf vessel(s).
The fractions or pre-elution fractions that are thus obtained were separated with SDS-PAGE and subjected to a Western Blot under reducing conditions.
In the Western Blot shown in FIG. 11, traces 1-3 show the elution of an affinity column with Fn-7-8-9, while traces 4-6 show the elution of an affinity column of Fn-7-B-8-9. Traces 1 and 4 are pre-elution factors, while traces 2, 3 or 5, 6 show fractions 1 and 2 of the respective elution run.

endothelial cells [5] = assay: adhesion test to ED-B-coated plates after pre-incubation of the cells with synthetic ED-B peptides; type: cell-based; details: cells pre-incubated with 250 μM peptide; A595
Procedure: Bowls of a 96-bowl plate (Nunc) are covered with protein for one hour at 37° C. With small proteins (<20 kDa) or peptides, it is recommended to allow the latter to dry on the plate (overnight without a cover under the sterile bank). The bowls are then saturated with 1% BSA for 1 hour at 37° C. Cells are dissolved in 1×trypsin, washed with 2% serum to inactivate the trypsin, and resuspended in medium. If antibodies or peptides are to be tested, the cells are pre-incubated in suspension with the latter for 30 minutes at 37° C. 10^4 cells per bowl (96-bowl plate) are incubated in a volume of 50-100 μl for 1 hour at 37° C. The supernatant is carefully poured off, the plate can be left inverted to drain on a paper towel for one minute and attached cells are stained with crystal violet/glutaric aldehyde for 15 minutes and attached. The bowls are washed three times with PBS, and the cells are then lysed by adding 2% SDS (15 minutes in the shaker). The absorption at 595 nm is measured. After washing three times with water, the cells, if desired, can be stained again.
The adherence was determined by the determination of the extinction at 595 nm (A595). The peptide designations that are applied in the figure are explained in FIG. 6. In this case, peptide sequence No. 043 corresponds to the sequence that is represented in SEQ ID NO: 1, peptide sequence No. 553 corresponds to SEQ ID NO: 2, peptide sequence No. 038 corresponds to SEQ ID NO: 3. A higher A595 value corresponds to a non-inhibited adherence, while a lower A595 value corresponds to an inhibition of the adherence by the corresponding peptide.
The method described for FIG. 4 was followed.

T1 sequence (P05556 21-798): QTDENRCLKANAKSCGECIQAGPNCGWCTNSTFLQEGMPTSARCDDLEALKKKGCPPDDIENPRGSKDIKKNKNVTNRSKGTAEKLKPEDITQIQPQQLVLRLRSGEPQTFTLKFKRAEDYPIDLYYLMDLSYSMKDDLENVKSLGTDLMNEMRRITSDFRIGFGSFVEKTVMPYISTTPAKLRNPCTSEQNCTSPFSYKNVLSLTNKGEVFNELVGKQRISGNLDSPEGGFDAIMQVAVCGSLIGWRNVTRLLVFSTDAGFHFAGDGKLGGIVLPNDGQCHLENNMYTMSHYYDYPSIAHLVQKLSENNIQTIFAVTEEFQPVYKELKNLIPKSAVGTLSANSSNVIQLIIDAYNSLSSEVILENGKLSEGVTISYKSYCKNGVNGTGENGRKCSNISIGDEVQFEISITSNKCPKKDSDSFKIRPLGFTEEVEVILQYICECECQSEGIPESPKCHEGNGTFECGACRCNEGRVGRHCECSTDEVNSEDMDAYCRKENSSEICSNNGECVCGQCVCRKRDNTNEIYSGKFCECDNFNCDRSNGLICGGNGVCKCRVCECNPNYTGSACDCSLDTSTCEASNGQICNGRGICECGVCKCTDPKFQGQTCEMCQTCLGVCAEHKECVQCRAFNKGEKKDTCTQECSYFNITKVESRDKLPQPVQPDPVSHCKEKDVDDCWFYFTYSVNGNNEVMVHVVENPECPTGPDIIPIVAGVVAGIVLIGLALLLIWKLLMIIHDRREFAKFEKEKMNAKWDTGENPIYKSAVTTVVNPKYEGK
T1 sequence (P17301 30-1181 partner): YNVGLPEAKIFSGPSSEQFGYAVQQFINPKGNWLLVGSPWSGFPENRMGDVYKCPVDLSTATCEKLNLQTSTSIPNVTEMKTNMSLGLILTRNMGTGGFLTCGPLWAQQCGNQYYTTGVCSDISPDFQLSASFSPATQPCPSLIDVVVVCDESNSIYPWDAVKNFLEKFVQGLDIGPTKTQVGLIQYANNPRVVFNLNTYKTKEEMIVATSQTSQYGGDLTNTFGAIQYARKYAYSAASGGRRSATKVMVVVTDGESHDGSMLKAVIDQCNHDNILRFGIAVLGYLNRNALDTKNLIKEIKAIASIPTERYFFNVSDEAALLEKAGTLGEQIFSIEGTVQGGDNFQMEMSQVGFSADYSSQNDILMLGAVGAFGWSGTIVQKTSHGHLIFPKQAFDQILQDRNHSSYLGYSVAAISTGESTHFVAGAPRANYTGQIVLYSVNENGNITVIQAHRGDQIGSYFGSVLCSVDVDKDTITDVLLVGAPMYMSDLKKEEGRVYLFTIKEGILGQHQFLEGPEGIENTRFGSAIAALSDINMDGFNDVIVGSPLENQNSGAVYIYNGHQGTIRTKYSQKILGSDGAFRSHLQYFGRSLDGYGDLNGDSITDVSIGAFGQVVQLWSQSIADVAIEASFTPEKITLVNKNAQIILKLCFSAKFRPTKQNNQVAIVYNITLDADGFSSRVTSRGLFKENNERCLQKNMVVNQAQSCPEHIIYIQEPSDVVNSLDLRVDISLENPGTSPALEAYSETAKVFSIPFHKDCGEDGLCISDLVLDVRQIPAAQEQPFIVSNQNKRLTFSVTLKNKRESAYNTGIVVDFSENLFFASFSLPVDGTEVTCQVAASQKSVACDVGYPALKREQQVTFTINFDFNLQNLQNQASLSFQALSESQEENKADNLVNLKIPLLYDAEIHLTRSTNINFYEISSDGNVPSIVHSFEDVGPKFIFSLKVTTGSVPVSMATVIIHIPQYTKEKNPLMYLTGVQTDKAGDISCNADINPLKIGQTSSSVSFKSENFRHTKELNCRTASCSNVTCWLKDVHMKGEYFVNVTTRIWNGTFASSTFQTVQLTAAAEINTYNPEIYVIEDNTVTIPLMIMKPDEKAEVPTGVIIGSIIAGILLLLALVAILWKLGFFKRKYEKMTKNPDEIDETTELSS

Substance: ED-B: recombinant His-tagged EDb-fibronectin domain (type III repeat), expressed in E. coli
proliferation of human stromal cells (stromal cells (SC)): could not be increased
adhesion of endothelial cells to coated surfaces (endothelial cells [1]): cells adhere
action on human endothelial cell proliferation (endothelial cells (EC); EC/collagen): not as significant as in the flattening-out on gelatin
action on human endothelial cell proliferation (endothelial cells (EC); EC/gelatin): action of ED-B on human endothelial cell proliferation could be determined
action on proliferation of cells (extinction at 490 nm) (endothelial cells (EC); absence of bFGF, MTS assay): no action
splintering of endothelial cells from spheroids ([2]; embedded in collagen, 10 μg/ml bFGF, 6 μg/ml ED-B): further stimulated; also recorded: significant increase in splintering
induction of capillary-like structures (tube formation); penetration of endothelial cells in collagen gels [2]: stimulates

binding of 120-130 kDa surface protein to sepharose-coupled fragment [3]: binds specifically
Substance: Fn-7-B-8-9: recombinant fibronectin fragment with domains 7, EDb, 8 and 9
prominent 120-130 kDa band in eluate of affinity column [4]: cannot be determined

Substance: 1: synthetic peptide, partial sequence of the EDb-fibronectin domains, SEQ ID NO: 1 (VDITDSSIGLRWTPL) [compound 1]
inhibition of adherence of endothelial cells to ED-B-coated plates (endothelial cells [5]): inhibitory

Substance: 3: synthetic peptide, partial sequence of the EDb-fibronectin domains, SEQ ID NO: 3 (TGLEPGIDYDISVIT) [compound 3]
inhibition of adherence of endothelial cells to ED-B-coated plates (endothelial cells [5]): inhibitory

Substance: peptide No. 2: synthetic peptide derived from loop 5 of ED-B, SEQ ID NO: 2 (GYYTVTGLEPGIDYD)
inhibition of adherence of endothelial cells to ED-B-coated plates (endothelial cells [5]): inhibitory
induction of capillary-like structures (tube formation); penetration of endothelial cells in collagen gels [2]: maximum effect
